Measured values taken from patent publication US20240425529A1, “BORIC ACID DERIVATIVE” (SHOUYAO HOLDINGS (BEIJING) CO., LTD., priority 2021, published 2024).

Tests used:
LMP7 [1] = biological target: T1, LMP7 (Homo sapiens, UniProt P28062); assay: Enzymatic inhibitory activity on LMP7 (MOLT-4 cell lysate, Ac-ANW-AMC substrate); format: biochemical; details: 1 hour pre-incubation
T1 construct: using MOLT-4 cell lysate as the enzyme source of LMP7; endogenous in cells; host or cells: MOLT-4 (human acute lymphoblastic leukemia cells)
Text: LMP7 is a catalytic subunit of immunoproteasomes. In this experiment, an enzymatic detection platform was established using its hydrolytic enzyme activity and used for compound activity detection. Using Ac-ANW-AMC (Bonston Biochem, Cat #S-320) as a substrate for LMP7, the amount of fluorescent group AMC (7-amino-4-methylcoumarin) released after hydrolysis can reflect the enzymatic activity. MOLT-4 cells are human acute lymphoblastic leukemia cells and have been identified as cells with high expression of LMP7. We established an enzymatic detection method for compound inhibition on LMP7 using MOLT-4 cell lysate as the enzyme source of LMP7 and detected the compound inhibitory activity (half inhibitory concentration, IC50).
(§1) MOLT-4 cells were cultured in a 75 cm^2 cell culture flask (Corning) (37° C., 95% air, and 5% CO2) with RPMI-1640 (Biological Industries) medium containing 10% fetal bovine serum (Biological Industries) and 1% Pen Strep (Gibco) and passaged 2-3 times one week. 1×10^7 MOLT-4 cells were collected, resuspended in 1 ml of PBS (Solarbio), and centrifuged at 3000 rpm for 5 minutes. The supernatant was aspirated off. The cells were resuspended in 500 μl of lysis buffer (20 mM Tris, pH 8.0, 5 mM EDTA, plus Protease inhibitor (1:1000) and Phosphatase Inhibitor (1:100) when used) and left on ice for 30 minutes. The cells were broken by supersonic technique, 0.5 S on, 0.5 S off, for 2.5 S. The centrifuge was performed at 12000 rpm, 4° C. for 10 minutes. The supernatant was the cell lysate and protein quantification was performed by using the BCA method (Thermo, #23225).
Compounds were diluted in a 5-fold gradient with 100% DMSO for a total of 9 concentrations: 2 W for each concentration was added to a 48-μl reaction buffer (20 mM Tris, pH 8.0, 0.5 mM EDTA) and mixed well as 4* compound (final concentrations: 2000, 400, 80, 16, 3.2, 0.64, 0.128, 0.0256, and 0 nM) for later use. A reaction buffer was used to prepare 4* MOLT-4 cell lysate at a final concentration of 20 ng/μl and 2*Ac-ANW-AMC at a final concentration of 100 µM. 5 μl of 4* compound was added to a 384-well plate (OptiPlate-384, purchased from PerkinElmer), added with 5 W of 4* cell lysate, centrifuged, and reacted in an incubator at 23° C. for 1 hour. 10 W of 2* Ac-ANW-AMC was added and the reaction was started by centrifugation at 23° C. in the dark for 2 hours. After completion of the reaction, the signal value (excitation wavelength 345 nm/emission wavelength 445 nm) was read on the CLARIO star^Plus (purchased from BMG LRBTECH). Enzyme activity was determined at 9 concentrations for each compound, and data were processed using the GraphPad Prism software to calculate the half inhibitory concentration of the compound on LMP7, i.e. the IC50 value.

β5 = biological target: T2, β5 (Homo sapiens, UniProt P28074); assay: Enzymatic inhibitory activity on β5 (HEK-293 cell lysate, Ac-WLA-AMC substrate); format: biochemical; details: 1 hour pre-incubation
T2 construct: using HEK-293 cell lysate as the enzyme source of D5; endogenous in cells; host or cells: HEK-293 (human embryonic kidney cells)
Text: β5 is a catalytic subunit of immunoproteasomes. In this experiment, an enzymatic detection platform was established using its hydrolytic enzyme activity and used for compound activity detection. Using Ac-WLA-AMC (Bonston Biochem, Cat #5-330) as a substrate for D5, the amount of fluorescent group AMC (7-amino-4-methylcoumarin) released after hydrolysis can reflect the enzymatic activity. […] We established an enzymatic detection method for compound inhibition on D5 using HEK-293 cell lysate as the enzyme source of D5 and detected the compound inhibitory activity (half inhibitory concentration, IC50). The enzymatic inhibitory activity of compounds against D5 was used as a measure index of compound selectivity.
as §1, with “HEK-293” for “MOLT-4”, “DMEM” for “RPMI-1640”, “performed” for “performed by”
Compounds were diluted in a 5-fold gradient with 100% DMSO for a total of 9 concentrations. 2 W for each concentration was added to a 48-μl reaction buffer (20 mM Tris, pH 8.0, 0.5 mM EDTA) and mixed well as 4* compound (final concentrations: 100000, 20000, 4000, 800, 160, 32, 6.4, 1.28, and 0 nM) for later use. A reaction buffer was used to prepare 4*HEK-293 cell lysate at a final concentration of 25 ng/μl and 2*Ac-WLA-AMC at a final concentration of 20 μM. 5 W of 4* compound was added to a 384-well plate (OptiPlate-384, purchased from PerkinElmer), added with 5 W of 4*HEK-293 cell lysate, centrifuged, and reacted in an incubator at 23° C. for 1 hour. 10 W of 2* Ac-WLA-AMC was added and the reaction was started by centrifugation at 23° C. in the dark for 2 hours. After completion of the reaction, the signal value (excitation wavelength 345 nm/emission wavelength 445 nm) was read on the CLARIO star^Plus (purchased from BMG LRBTECH). Enzyme activity was determined at 9 concentrations for each compound, and data were processed using the GraphPad Prism software to calculate the half inhibitory concentration of the compound on D5, i.e. the IC50 value.

LMP7 [2] = biological target: T1, LMP7; assay: Cytological inhibitory activity on LMP7 in MOLT-4 cells; format: cell-based; details: incubation for 2 hours with compound, read-out: Cytological activity data LMP7 Activity (MOLT-4Cell)
Procedure: MOLT-4 are human acute lymphoblastic leukemia cells and have been identified as cells with high expression of LMP7. In this experiment, the compounds were pre-incubated with MOLT-4, and Ac-ANW-AMC (BonstonBiochem, Cat #S-320) was used as the substrate of LMP7 to establish the detection method for the enzymatic activity of LMP7 in cells and detect the compound inhibitory activity (half inhibitory concentration, IC50).
Cells were plated in a 24-well plate (Corning) at a concentration of 1.5×10^5/ml per well. The next day compounds were prepared and diluted in a 5-fold gradient from 2 mM in 100% DMSO for a total of 8 concentrations. 2 μl for each concentration of the compound was added to a 1-ml cell culture medium, supplemented with 1 ml of RPMI-1640 only (final FBS concentration 5%, v/v). The compounds were mixed with the cells. After incubation for 2 hours in the incubator, the cells were centrifuged at 2000 rpm for 8 minutes to discard the supernatant. The cells were washed once with 2 ml PBS (Solarbio), and centrifuged again to discard the supernatant. The cells were resuspended in 100 μl of lysis buffer (20 mM Tris, pH 8.0, 5 mM EDTA, plus Protease inhibitor (1: 100) and Phosphatase Inhibitor (1:100) when used) and left in a 4° C. refrigerator for 45 minutes.
After 2 min. of centrifuge at 2000 rpm, the lysate was transferred from the 24-well plate to a 96-well plate, and centrifuged at 2000 rpm, 4° C., for 15 min. The supernatant was the lysate. Protein quantification was performed using the BCA method (Thermo, #23225). A 2* lysate was prepared with the reaction buffer (20 mM Tris, pH 8.0, 0.5 mM EDTA) at a final concentration of 20 ng/μl. 2* Ac-ANW-AMC was prepared with the reaction buffer at a final concentration of 100 μM. 10 µl of 2* lysate was added to a 384-well plate (OptiPlate-384, purchased from PerkinElmer), and added with 10 W of 2* Ac-ANW-AMC. The reaction was started by centrifugation at 23° C. in the dark for 1 hour. After completion of the reaction, the signal value (excitation wavelength 345 nm/emission wavelength 445 nm) was read on the CLARIO starPlus (purchased from BMG LRBTECH). Enzyme activity was determined at 8 concentrations for each compound, and data were processed using the GraphPad Prism software to calculate the half inhibitory concentration of the compound on LMP7 hydrolase in MOLT-4 cells, i.e. the IC50 value.

Structure (SMILES) | IC50 (LMP7 [1]) | IC50 (β5) | IC50 (LMP7 [2])
O=C(N[C@@H](Cc1coc2ccccc12)B(O)O)C(=O)N[C@@H]1C[C@H]2CC[C@@H]1O2 [Ex. 1, ((R)-1-(2-(((1S,2R,4R)-7-oxabicyclo[2.2.1]heptan-2-yl)amino)-2-oxoacetamido)-2-(benzofuran-3-yl)ethyl)boronic acid] | 7.65 nM | 154 nM | 5.94 nM
CNC(=O)C(=O)N[C@@H](Cc1coc2ccccc12)B(O)O [Ex. 2, (R)-(2-(benzofuran-3-yl)-1-(2-(methylamino)-2-oxoacetamido)ethyl)boronic acid] | 26.9 nM | – | –
CON(C)C(=O)C(=O)N[C@@H](Cc1coc2ccccc12)B(O)O [Ex. 3, (R)-(2-(benzofuran-3-yl)-1-(2-(methoxy(methyl)amino)-2-oxoacetamido)ethyl) boronic acid] | 13 nM | 507 nM | –
CCN(CC)C(=O)C(=O)N[C@@H](Cc1coc2ccccc12)B(O)O [Ex. 4, (R)-(2-(benzofuran-3-yl)-1-(2-(diethylamino)-2-oxoacetamido)ethyl)boronic acid] | 22.3 nM | – | –
CN(C)C(=O)C(=O)N[C@@H](Cc1coc2ccccc12)B(O)O [Ex. 6, (R)-(2-(benzofuran-3-yl)-1-(2-(dimethylamino)-2-oxoacetamido)ethyl)boronic acid] | 28.5 nM | – | –
O=C(N[C@H]1CCOC1)C(=O)N[C@@H](Cc1coc2ccccc12)B(O)O [Ex. 7, ((R)-2-(benzofuran-3-yl)-1-(2-oxo-2(((S)-tetrahydrofuran-3-yl)amino)acetamido)ethyl) boronic acid] | 7.7 nM | 123 nM | –
C[C@@H](NC(=O)C(=O)N[C@@H](Cc1coc2ccccc12)B(O)O)c1ccccn1 [Ex. 8, ((R)-2-(benzofuran-3-yl)-1-(2-oxo-2-(((R)-1-(pyridin-2-yl)ethyl)amino)acetamido)ethyl)boronic acid] | 24.7 nM | – | –
O=C(NC1CCOCC1)C(=O)N[C@@H](Cc1coc2ccccc12)B(O)O [Ex. 11, (R)-(2-(benzofuran-3-yl)-1-(2-oxo-2-((tetrahydro-2H-pyran-4-yl)amino)acetamido)ethyl)boronic acid] | 7.3 nM | 123 nM | –
O=C(Nc1nccs1)C(=O)N[C@@H](Cc1coc2ccccc12)B(O)O [Ex. 13, (R)-(2-(benzofuran-3-yl)-1-(2-oxo-2-(thiazol-2-ylamino)acetamido)ethyl) boronic acid] | 3.13 nM | 58.7 nM | 4.06 nM
O=C1CC[C@H](N2C(=O)c3ccc(N4CCN(CC5CCN(C(=O)C(=O)N[C@@H](Cc6coc7ccccc67)B(O)O)CC5)CC4)cc3C2=O)C(=O)N1 [Ex. 16, ((R)-2-(benzofuran-3-yl)-1-(2-(4-((4-(2-((S)-2,6-dioxopiperidin-3-yl)-1,3-dioxoisoindolin-5-yl)piperazin-1-yl)methyl)piperidin-1-yl)-2-oxoacetamido)ethyl)boronic acid] | 32.9 nM | 58.7 nM | –
CC1(C)[C@@H]2C[C@H]3OB([C@H](Cc4coc5ccccc45)NC(=O)C(=O)Nc4cnccn4)O[C@@]3(C)[C@H]1C2 [Ex. 17, (R)-(2-(benzofuran-3-yl)-1-(2-oxo-2-(pyrazin-2-ylamino)acetamido)ethyl) boronic acid (1S,2S,3R,5S)-(+)-pinane-2,3-diol ester] | 2.6 nM | 30.1 nM | 0.8 nM
O=C(O)CC1(CC(=O)O)OB([C@H](Cc2coc3ccccc23)NC(=O)C(=O)Nc2cnccn2)OC1=O [Ex. 18, (R)-2,2′-(2-(2-(benzofuran-3-yl)-1-(2-oxo-2-(pyrazin-2-ylamino)acetamido)ethyl)-5-oxo-1,3,2-dioxaborolane-4,4-diyl)diacetic acid] | 2.42 nM | 34.1 nM | 1.26 nM
CC1(C)OB([C@H](Cc2coc3ccccc23)NC(=O)C(=O)Nc2cnccn2)OC1(C)C [Ex. 19, N-((1R)-2-(1-benzofuran-3-yl)-1-(tetramethyl-1,3,2-dioxaborolan-2-yl)ethyl)-N-(pyrazin-2-yl)oxalamide] | 1.11 nM | 12.2 nM | 0.69 nM
